Results published in the NIST ThermoML archive (doi:10.1021/je800586u).

Conditions: Crystal

C1CSCCS1 [1,4-dithiacyclohexane]
vapor or sublimation pressure [kPa]
Conditions	296.65 K	355.75 K	359.45 K	362.35 K	367.35 K	370.65 K	374.05 K	374.25 K	376.95 K
Rate of evaporation	–	1.067	1.333	1.893	2.653	3.246	3.826	3.906	4.626
Transpiration method	0.00918	–	–	–	–	–	–	–	–
